Measurements reported in patent US20130236898A1, “Anaplasma FAMILY MEMBERS CAUSE A NUMBER OF BLOOD-BORNE DISEASES” (priority 2012, published 2013).

Legend:
HGA agent = conditions: reported by Klein et al., Antimicrob. Agents and Chemother. 1997; cited from earlier work
[1] = test system: acute lymphocytic leukemia (ALL); experiment: Rifampin treatment of Patient two, end stage marrow failure; type: in vivo, human; conditions: person, ALL recurrence after marrow transplant, no other treatment given
From the text: No other treatment was available or given. After 2 months of rapid improvement, during which they regained the ability to walk and was discharged from the hospital, they succumbed to an acute apparently unrecognized cytomegalovirus infection.

[2] = test system: acute myelogenous leukemia (AML); experiment: Rifampin treatment of Patient one; type: in vivo, human
Method: This was a child with acute myelogenous leukemia (AML), who had blood counts of less than 2000 platelets and less than 300 white cells, persisting for 3 months. They were treated with Rifampin and on day 11 […] white cell count increased to 21,000, with 75% blasts.

[3] = test system: intracellular organisms in the genus of Ehrlich/Anaplasma; conditions: cited from earlier work

Compound | activity against the HGA agent (HGA agent) | further results
Gentamicin | weakly active, but not bactericidal | 
CO[C@H]1/C=C/O[C@@]2(C)Oc3c(C)c(O)c4c(c3C2=O)C2=NC3(CCN(CC(C)C)CC3)NC2=C(NC(=O)/C(C)=C\C=C\[C@H](C)[C@H](O)[C@@H](C)[C@@H](O)[C@@H](C)[C@H](OC(C)=O)[C@@H]1C)C4=O [rifabutin] | most active, and bactericidal | 
O=C(O)c1cn(C2CC2)c2cc(N3CCNCC3)c(F)cc2c1=O [ciprofloxacin] | most active, and bactericidal | 
C[C@H]1c2cccc(O)c2C(=O)C2=C(O)[C@]3(O)C(=O)C(C(N)=O)=C(O)[C@@H](N(C)C)[C@@H]3[C@@H](O)[C@@H]21 [doxycycline] | most active, and bactericidal | 
thrmethoprim-sulfamethoxazolem | resistant | 
CC1(C)S[C@@H]2[C@H](NC(=O)[C@H](N)c3ccccc3)C(=O)N2[C@H]1C(=O)O [ampicillin] | resistant | 
CC[C@H]1OC(=O)[C@H](C)[C@@H](O[C@H]2C[C@@](C)(OC)[C@@H](O)[C@H](C)O2)[C@H](C)[C@@H](O[C@@H]2O[C@H](C)C[C@H](N(C)C)[C@H]2O)[C@](C)(O)C[C@@H](C)CN(C)[C@H](C)[C@@H](O)[C@]1(C)O [azrithromycin] | resistant | 
CO/N=C(\C(=O)N[C@@H]1C(=O)N2C(C(=O)O)=C(CSc3nc(=O)c(O)nn3C)CS[C@H]12)c1csc(N)n1 [cefatriaxone] | resistant | 
N[C@@H]1[C@H]2CN(c3nc4c(cc3F)c(=O)c(C(=O)O)cn4-c3ccc(F)cc3F)C[C@@H]12 [trovafloxacin] | most active, and bactericidal | 
O=C(N[C@H](CO)[C@H](O)c1ccc([N+](=O)[O-])cc1)C(Cl)Cl [chloramphenicol] | weakly active, but not bactericidal | 
Rifampicin [Rifampin] | most active, and bactericidal | clinical outcome [1]: remarkable though temporary recovery; platelets ([2]; after treatment, less than 2000 platelets before): increased less rapidly; blasts ([2]; day 11 of treatment, share of white cell count): 75%; white cell count ([2]; day 11 of treatment, child, less than 300 white cells for 3 months before): 21,000; effectiveness against intracellular organisms of genus Ehrlich/Anaplasma [3]: particularly effective
imipenem-cilastatin | resistant | 
CC[C@H]1OC(=O)[C@H](C)[C@@H](O[C@H]2C[C@@](C)(OC)[C@@H](O)[C@H](C)O2)[C@H](C)[C@@H](O[C@@H]2O[C@H](C)C[C@H](N(C)C)[C@H]2O)[C@](C)(O)C[C@@H](C)C(=O)[C@H](C)[C@@H](O)[C@]1(C)O [erythromycin] | resistant | 
